Test results as given in patent publication US4652548A (Eli Lilly and Company, priority 1984, dated 1987).

Key:
[1] = test system: fasting Type II diabetic patients; assay: Subcutaneous administration to fasting Type II diabetic patients: plasma glucose; type: in vivo, human
[2] = after stopping 5 hour infusion
Description: (§1) At this point, the hormone infusion was abruptly stopped, and the glucose concentration was maintained constant until the biologic effects of the infused hormone were no longer detectable.

[3] = test system: hepatic glucose output (HGO); assay: Kinetics of deactivation of effect on hepatic glucose output (HGO); type: in vivo, human
Description: as §1

[4] = test system: insulin-degrading proteases; details: subcutaneous injection site
HGO = test system: HGO
Description: For example, in non-insulin dependent diabetes mellitus (NIDDM), one of the major metabolic abnormalities that maintains the resultant hyperglycemic state is accelerated hepatic glucose production.

[5] = test system: peripheral glucose uptake; assay: Kinetics of activation and deactivation of effect on peripheral glucose uptake; type: in vivo, human
Description: Marked differences between the two hormones were noted when biologic activity was studied.
as §1

[6] = Euglycemic glucose-clamp: steady state serum hormone levels; type: in vivo, human
Procedure: J. Physiol. 237:E214-E223 (1979). With this technique, an antecuubital vein is cannulated in an antegrade manner to administer the infusates. A dorsal hand vein is cannulated in a retrograde fashion and kept in a warming device (70° C.) to facilitate venous sampling and provide arterialized venous blood After insertion of the catheters, [3-3H]-glucose is infused for at least 30 minutes before initiating the hormone infusion. At the onset of hormone infusion, a priming dose of either insulin or proinsulin is administered during the initial 10 minutes in a logarithmically decreasing manner to acutely raise the serum hormone level. The amount of insulin or proinsulin given during this initial 10 minute period is roughly twice that given during each subsequent 10 minute interval by a continuous hormone infusion The serum glucose is maintained between 80 and 90 mg/dl throughout the study period with a coefficient of variation of less than 5% by means of a variable rate of infusion of 20% dextrose. The overall glucose disposal rate is assessed isotopically for each 20 minute interval of the study.
Each subject underwent a total of 8 euglycemic glucose clamp studies, each performed on a separate day. Insulin infusion rates of 15, 40, 120, and 240 mU/M2/min were utilized to construct a dose response curve for insulin action. With this approach an attempt was made to achieve steady state insulin concentrations of 40 to 800 μU/ml (Table 1). Each subject was also studied with four different proinsulin infusions. […] Hepatic glucose output was quantitated in the basal state and during each clamp study using a primed continuous infusion of [3-3H]glucose. […] The dose response relationship for insulin and proinsulin mediated suppression of hepatic glucose output was determined by calculating the percent suppression of basal hepatic glucose output at each steady state hormone concentration obtained during the euglycemic clamp studies.

[7] = after stopping 5 hour infusion (human insulin 0.55, human proinsulin 2.75 μg/M2/min)

human proinsulin: human proinsulin, available by organic synthesis, isolation from human pancreas or recombinant DNA methodology
Plasma Glucose ([1]; subject three, total dose 27.2 I.U. (0.2 U/kg s.c.), 200 min after injection): 110 mg/dL | Plasma Glucose ([1]; subject three, total dose 27.2 I.U. (0.2 U/kg s.c.), 240 min after injection): 101 mg/dL | Plasma Glucose ([1]; subject three, total dose 27.2 I.U. (0.2 U/kg s.c.), 280 min after injection): 98 mg/dL | Plasma Glucose ([1]; subject three, total dose 27.2 I.U. (0.2 U/kg s.c.), 300 min after injection): 88 mg/dL | Plasma Glucose ([1]; subject three, total dose 27.2 I.U. (0.2 U/kg s.c.), 360 min after injection): 84 mg/dL | Plasma Glucose ([1]; subject three, total dose 27.2 I.U. (0.2 U/kg s.c.), 400 min after injection): 85 mg/dL | Plasma Glucose ([1]; subject three, total dose 27.2 I.U. (0.2 U/kg s.c.), 440 min after injection): 86 mg/dL | Plasma Glucose ([1]; subject three, total dose 27.2 I.U. (0.2 U/kg s.c.), 480 min after injection): 88 mg/dL | Plasma Glucose ([1]; subject two, total dose 20.0 I.U. (0.2 U/kg s.c.), 0 min after injection): 231 mg/dL | Plasma Glucose ([1]; subject two, total dose 20.0 I.U. (0.2 U/kg s.c.), 40 min after injection): 217 mg/dL | Plasma Glucose ([1]; subject two, total dose 20.0 I.U. (0.2 U/kg s.c.), 80 min after injection): 201 mg/dL | Plasma Glucose ([1]; subject two, total dose 20.0 I.U. (0.2 U/kg s.c.), 120 min after injection): 191 mg/dL | Plasma Glucose ([1]; subject two, total dose 20.0 I.U. (0.2 U/kg s.c.), 160 min after injection): 182 mg/dL | Plasma Glucose ([1]; subject two, total dose 20.0 I.U. (0.2 U/kg s.c.), 240 min after injection): 164 mg/dL | Plasma Glucose ([1]; subject two, total dose 20.0 I.U. (0.2 U/kg s.c.), 280 min after injection): 143 mg/dL | Plasma Glucose ([1]; subject two, total dose 20.0 I.U. (0.2 U/kg s.c.), 300 min after injection): 134 mg/dL | Plasma Glucose ([1]; subject two, total dose 20.0 I.U. (0.2 U/kg s.c.), 360 min after injection): 128 mg/dL | Plasma Glucose ([1]; subject two, total dose 20.0 I.U. (0.2 U/kg s.c.), 400 min after injection): 117 mg/dL | Plasma Glucose ([1]; subject two, total dose 20.0 I.U. (0.2 U/kg s.c.), 440 min after injection): 112 mg/dL | Plasma Glucose ([1]; subject two, total dose 20.0 I.U. (0.2 U/kg s.c.), 480 min after injection): 104 mg/dL | Plasma Glucose ([1]; subject two, total dose 20.0 I.U. (0.2 U/kg s.c.), 500 min after injection): 100 mg/dL | Plasma Glucose ([1]; subject, total dose 15.0 I.U. (0.2 U/kg s.c.), 0 min after injection): 332 mg/dL | Plasma Glucose ([1]; subject, total dose 15.0 I.U. (0.2 U/kg s.c.), 40 min after injection): 328 mg/dL | Plasma Glucose ([1]; subject, total dose 15.0 I.U. (0.2 U/kg s.c.), 80 min after injection): 308 mg/dL | Plasma Glucose ([1]; subject, total dose 15.0 I.U. (0.2 U/kg s.c.), 120 min after injection): 288 mg/dL | Plasma Glucose ([1]; subject, total dose 15.0 I.U. (0.2 U/kg s.c.), 160 min after injection): 272 mg/dL | Plasma Glucose ([1]; subject, total dose 15.0 I.U. (0.2 U/kg s.c.), 200 min after injection): 247 mg/dL | Plasma Glucose ([1]; subject, total dose 15.0 I.U. (0.2 U/kg s.c.), 240 min after injection): 210 mg/dL | Plasma Glucose ([1]; subject, total dose 15.0 I.U. (0.2 U/kg s.c.), 280 min after injection): 174 mg/dL | Plasma Glucose ([1]; subject, total dose 15.0 I.U. (0.2 U/kg s.c.), 360 min after injection): 94 mg/dL | Time by which hormone concentrations are below biologically effective values [2]: ≤ 90 minutes | Time until a decline in effect to suppress HGO could be detected ([3]; after infusion stopped): 120 min | Time until HGO returned to baseline values, extrapolation of the curve ([3]; after stopping 5 hour infusion): > 6 h | t 1/2 of deactivation of effect to inhibit HGO [3, 7]: 3.83 ± 0.317 h | Degradation by insulin-degrading proteases [4]: not degraded | Expected suppression of HGO in NIDDM subjects (HGO; circulating concentration approximately 1.5-2 pmol/ml): approximately 50% | Expected duration of adequate glycemic control (HGO; sustained level 1.5-2 pmol/ml for about 3 hours by CSII or single s.c. injection): 8 to 10 h | Decay of biologic effect to stimulate glucose disposal, more slowly than human insulin ([5]; after stopping 5 hour infusion): 2.2 times | t 1/2 of deactivation of effects on glucose disposal [5, 7]: 1.45 ± 0.233 h | Time needed to reach steady state biologic effects compared to human insulin ([5]; both stimulation of glucose disposal and inhibition of HGO): much slower | Time to steady state effect to stimulate glucose disposal ([5]; continuous infusion): 5 h | Time until glucose disposal rates returned to basal ([5]; following cessation of 2.75 μg/M2/min infusion): 160 min | Steady State Hormone Levels (Mean ± SEM) ([6]; infusion A: insulin 0.63, proinsulin 2.75 μg/M^2/min): 2.55 ± 0.16 pmol/mL | Steady State Hormone Levels (Mean ± SEM) ([6]; infusion B: insulin 1.67, proinsulin 7.5 μg/M^2/min): 6.24 ± 0.49 pmol/mL | Steady State Hormone Levels (Mean ± SEM) ([6]; infusion C: insulin 5.0, proinsulin 22.5 μg/M^2/min): 21.2 ± 1.4 pmol/mL | Steady State Hormone Levels (Mean ± SEM) ([6]; infusion D: insulin 10.0, proinsulin 45.0 μg/M^2/min): 40.0 ± 1.9 pmol/mL
